Values joined by “and” are separate entries in the source; they are usually repeats but may differ in a detail not shown here. Equal entries are not always repeated. Where two headings read alike, the source gives them in different places. Some results are limits rather than exact numbers.

One experiment addresses human DNA-PK (Homo sapiens, UniProt P78527). Description: Inhibition of DNA-PKcs kinase activity, HotSpot assay (Reaction Biology), [γ-33P]-ATP phosphorylation of peptide substrate. The format is biochemical.
In the next experiment the target is human PI3Kα (p110α/p85α) (Homo sapiens, UniProt P42336). In words: Inhibition of PI3Kα kinase activity, ADP-Glo Assay (Reaction Biology). Particulars: 10 μM ATP; mean of two replicates; Table 12; read-out: Inhibition of kinase activity (as IC50) PICK. It is filed as biochemical. (ADP-Glo turns the ADP formed in a reaction into a luminescent signal.)
In the next experiment the target is ATM (Homo sapiens, UniProt Q13315). Description: ATM Human PIKK Kinase Enzymatic ELISA/EIA Assay, KinaseProfiler (Eurofins Discovery). Particulars: for remaining activity at 1 µM: read-out: ATM, Percent of control at 1 μM; for IC50: KinaseProfiler, Km ATP, Table 15, read-out: Inhibition of PIKK kinase activity ATM. It is filed as biochemical. (ELISA stands for enzyme-linked immunosorbent assay.)

A further experiment has as its target ATR/ATRIP (Homo sapiens, UniProt Q13535). In words: ATR/ATRIP Human PIKK Kinase Enzymatic Radiometric Assay, KinaseProfiler (Eurofins Discovery). It is filed as biochemical. The following applies: Km ATP, Table 15, read-out: Inhibition of PIKK kinase activity ATR.
For experiment [1], the system named is UT-SCC-54C cells. In words: Radiosensitisation of UT-SCC-54C HNSCC cells, regrowth (sulforhodamine B) assay, oxic (Table 16). The format is cell-based, human. Particulars: for IC50: Homo sapiens, read-out: IC50; for S50: compound in combination with 3 Gy of radiation, 50% inhibition of regrowth fraction, UT-SCC-54C.
The test system of the next experiment is HAP1 cells. Description: Radiosensitisation of HAP1 wild type cells, regrowth assay. The following applies: for effect in unirradiated HAP1 cells: 0 Gy; for radiosensitisation / differential growth inhibition of HAP1 cells: 3 Gy cobalt-60 gamma irradiation relative to radiation-only; for IC50: Homo sapiens, HAP1, read-out: HAP1 wt IC50. It is filed as cell-based, human.

For the next experiment, the system named is HAP1/PRKDC−/− cells. Description: Radiosensitisation of DNA-PK null HAP1/PRKDC−/− cells, regrowth assay. The following applies: for radiosensitisation / differential growth inhibition of DNA-PK null HAP1 line: 3 Gy, HAP1/PRKDC−/−; for IC50: Homo sapiens, HAP1. The format is cell-based, human.
Experiment [2] has as its system UT-SCC-54C cells. In words: Radiosensitisation of UT-SCC-54C HNSCC cells, clonogenic survival, oxic and anoxic (Table 18). It is filed as cell-based, human. The following applies: for Plating efficiency drug/no drug: no radiation.
The next experiment concerns the target human mTOR (Homo sapiens, UniProt P42345). In words: Inhibition of mTOR kinase activity, HotSpot assay, phosphorylation of 4EPB1.
The next experiment has as its target Ser2056 of DNA-PKcs (Homo sapiens, UniProt P78527). Description: Inhibition of cellular autophosphorylation at Ser2056 of DNA-PKcs in UT-SCC-54C cells, western immunoblotting. The format is cell-based. Particulars: oxia, 10 Gy, FIG. 7 (10 μM). (In general: A western blot detects proteins with antibodies after separation by electrophoresis.)
Where [3] appears, read: 10 μM ATP, 10 μg/ml DNA, mean of two replicates, Table 12, read-out: Inhibition of kinase activity (as IC50) DNA-PK (converted).
[4] abbreviates: HotSpot assay Reaction Biology Corp., Table 15, read-out: Inhibition of PIKK kinase activity DNA-PK.
Setting [5] is: Inhibition of PIKK kinase activity mTOR/FRAP (nM), HotSpot assay Reaction Biology Corp., Table 15.
[6] abbreviates: Inhibition of kinase activity (as IC50) mTOR (nM), 10 μM ATP, mean of two replicates, Table 12.

Sequence of ATM (Q13315 whole entry): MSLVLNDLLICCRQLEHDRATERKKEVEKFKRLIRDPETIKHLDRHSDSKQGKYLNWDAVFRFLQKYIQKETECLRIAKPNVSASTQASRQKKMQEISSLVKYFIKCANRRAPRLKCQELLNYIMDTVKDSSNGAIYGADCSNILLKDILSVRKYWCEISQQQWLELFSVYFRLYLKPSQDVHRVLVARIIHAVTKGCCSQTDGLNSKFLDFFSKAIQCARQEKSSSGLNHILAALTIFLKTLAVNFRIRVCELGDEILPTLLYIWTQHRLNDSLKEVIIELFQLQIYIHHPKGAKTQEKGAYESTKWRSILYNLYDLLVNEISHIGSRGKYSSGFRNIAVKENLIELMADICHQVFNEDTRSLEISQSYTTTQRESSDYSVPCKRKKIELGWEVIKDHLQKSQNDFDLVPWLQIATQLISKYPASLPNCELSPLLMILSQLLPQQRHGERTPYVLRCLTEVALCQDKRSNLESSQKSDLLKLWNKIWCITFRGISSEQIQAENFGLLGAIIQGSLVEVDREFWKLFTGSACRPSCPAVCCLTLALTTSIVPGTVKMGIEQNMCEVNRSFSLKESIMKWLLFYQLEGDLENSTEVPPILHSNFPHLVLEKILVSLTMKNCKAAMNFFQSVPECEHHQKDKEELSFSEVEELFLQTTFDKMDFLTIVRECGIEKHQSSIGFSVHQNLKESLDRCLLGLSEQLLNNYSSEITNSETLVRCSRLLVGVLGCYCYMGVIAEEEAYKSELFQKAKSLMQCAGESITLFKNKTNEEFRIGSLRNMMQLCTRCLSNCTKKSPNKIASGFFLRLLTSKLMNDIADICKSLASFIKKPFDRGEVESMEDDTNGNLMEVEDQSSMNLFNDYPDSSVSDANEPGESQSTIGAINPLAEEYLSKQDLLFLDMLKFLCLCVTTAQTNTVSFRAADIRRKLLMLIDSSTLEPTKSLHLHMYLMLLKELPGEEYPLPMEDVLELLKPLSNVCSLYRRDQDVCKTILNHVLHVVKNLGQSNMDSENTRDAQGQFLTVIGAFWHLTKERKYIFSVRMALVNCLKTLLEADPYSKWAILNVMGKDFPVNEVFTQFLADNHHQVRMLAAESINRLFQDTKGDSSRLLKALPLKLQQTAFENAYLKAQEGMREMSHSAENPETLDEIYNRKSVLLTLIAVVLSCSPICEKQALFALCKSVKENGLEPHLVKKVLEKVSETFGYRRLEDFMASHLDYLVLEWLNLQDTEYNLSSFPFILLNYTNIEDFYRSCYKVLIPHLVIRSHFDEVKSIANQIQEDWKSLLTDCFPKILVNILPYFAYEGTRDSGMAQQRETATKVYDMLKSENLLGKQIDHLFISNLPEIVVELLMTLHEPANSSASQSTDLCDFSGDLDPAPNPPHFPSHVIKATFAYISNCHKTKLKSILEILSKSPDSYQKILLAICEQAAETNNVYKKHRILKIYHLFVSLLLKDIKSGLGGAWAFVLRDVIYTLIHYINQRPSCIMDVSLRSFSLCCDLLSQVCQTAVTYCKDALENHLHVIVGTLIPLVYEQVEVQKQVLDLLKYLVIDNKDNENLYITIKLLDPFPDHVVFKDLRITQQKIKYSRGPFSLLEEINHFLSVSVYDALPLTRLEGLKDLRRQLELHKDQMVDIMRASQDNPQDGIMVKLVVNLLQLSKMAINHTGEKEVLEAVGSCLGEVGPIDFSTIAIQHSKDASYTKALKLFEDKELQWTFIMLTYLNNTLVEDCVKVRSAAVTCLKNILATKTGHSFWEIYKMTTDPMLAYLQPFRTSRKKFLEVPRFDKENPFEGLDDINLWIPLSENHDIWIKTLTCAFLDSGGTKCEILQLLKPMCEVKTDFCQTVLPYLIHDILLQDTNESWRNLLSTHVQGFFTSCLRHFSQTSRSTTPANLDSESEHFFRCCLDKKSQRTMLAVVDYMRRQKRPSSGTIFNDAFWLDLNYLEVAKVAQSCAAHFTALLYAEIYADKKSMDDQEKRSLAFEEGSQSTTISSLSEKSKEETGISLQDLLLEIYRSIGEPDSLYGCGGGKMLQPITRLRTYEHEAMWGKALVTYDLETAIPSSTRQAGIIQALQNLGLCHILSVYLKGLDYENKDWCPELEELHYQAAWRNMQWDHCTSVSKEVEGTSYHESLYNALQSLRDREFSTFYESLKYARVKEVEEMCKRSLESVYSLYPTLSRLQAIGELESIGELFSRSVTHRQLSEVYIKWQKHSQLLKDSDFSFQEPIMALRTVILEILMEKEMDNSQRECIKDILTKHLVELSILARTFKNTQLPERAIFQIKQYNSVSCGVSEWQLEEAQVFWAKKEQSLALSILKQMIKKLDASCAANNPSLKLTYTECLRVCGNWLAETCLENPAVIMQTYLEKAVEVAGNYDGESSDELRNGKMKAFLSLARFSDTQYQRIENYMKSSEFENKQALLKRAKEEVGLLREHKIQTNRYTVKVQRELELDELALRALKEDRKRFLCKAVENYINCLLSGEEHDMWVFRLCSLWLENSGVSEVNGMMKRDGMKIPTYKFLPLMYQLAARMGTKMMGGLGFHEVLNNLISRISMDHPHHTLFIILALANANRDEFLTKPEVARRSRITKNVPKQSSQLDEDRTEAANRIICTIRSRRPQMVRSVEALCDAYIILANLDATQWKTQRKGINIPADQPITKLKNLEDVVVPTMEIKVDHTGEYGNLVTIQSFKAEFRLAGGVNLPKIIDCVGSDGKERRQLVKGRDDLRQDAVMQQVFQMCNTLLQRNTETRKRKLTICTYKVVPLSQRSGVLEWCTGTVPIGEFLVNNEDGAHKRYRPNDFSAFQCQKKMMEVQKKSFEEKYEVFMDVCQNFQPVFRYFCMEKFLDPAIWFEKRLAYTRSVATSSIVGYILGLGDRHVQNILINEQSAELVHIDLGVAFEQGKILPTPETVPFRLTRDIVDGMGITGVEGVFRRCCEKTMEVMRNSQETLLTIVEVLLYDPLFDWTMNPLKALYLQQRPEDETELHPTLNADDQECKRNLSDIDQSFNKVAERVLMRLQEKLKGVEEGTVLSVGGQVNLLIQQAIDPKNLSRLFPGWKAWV
Sequence of human PI3Kα (p110α/p85α) (P42336 whole entry): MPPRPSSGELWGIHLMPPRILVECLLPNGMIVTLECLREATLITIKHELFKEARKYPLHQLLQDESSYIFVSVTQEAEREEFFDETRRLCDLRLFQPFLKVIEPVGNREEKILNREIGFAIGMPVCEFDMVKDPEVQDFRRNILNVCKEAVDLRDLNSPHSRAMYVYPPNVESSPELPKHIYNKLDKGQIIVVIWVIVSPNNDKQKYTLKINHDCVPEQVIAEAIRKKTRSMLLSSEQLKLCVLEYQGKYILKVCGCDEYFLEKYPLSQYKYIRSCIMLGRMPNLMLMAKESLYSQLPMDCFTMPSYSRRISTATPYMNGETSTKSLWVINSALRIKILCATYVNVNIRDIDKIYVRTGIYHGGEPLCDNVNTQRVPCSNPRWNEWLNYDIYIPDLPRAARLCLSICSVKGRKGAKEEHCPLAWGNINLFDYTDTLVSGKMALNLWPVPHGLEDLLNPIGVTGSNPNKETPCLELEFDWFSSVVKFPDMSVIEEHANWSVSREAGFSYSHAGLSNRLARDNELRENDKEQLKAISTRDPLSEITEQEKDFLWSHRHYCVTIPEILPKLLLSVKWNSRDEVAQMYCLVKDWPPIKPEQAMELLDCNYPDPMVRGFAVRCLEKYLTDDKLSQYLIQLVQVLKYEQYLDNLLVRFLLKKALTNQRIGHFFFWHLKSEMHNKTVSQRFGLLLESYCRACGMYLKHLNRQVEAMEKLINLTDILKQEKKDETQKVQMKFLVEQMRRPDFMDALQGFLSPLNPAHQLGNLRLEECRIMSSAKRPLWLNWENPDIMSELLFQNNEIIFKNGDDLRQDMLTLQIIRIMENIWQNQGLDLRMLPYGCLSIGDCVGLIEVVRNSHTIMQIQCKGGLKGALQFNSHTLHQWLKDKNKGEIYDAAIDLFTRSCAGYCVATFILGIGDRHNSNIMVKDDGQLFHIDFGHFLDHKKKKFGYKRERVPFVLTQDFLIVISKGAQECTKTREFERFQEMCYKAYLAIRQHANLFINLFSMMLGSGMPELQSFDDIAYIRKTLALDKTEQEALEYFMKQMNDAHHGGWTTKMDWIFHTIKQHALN
Sequence of human PI3Kα (p110α/p85α) (P27986 whole entry partner): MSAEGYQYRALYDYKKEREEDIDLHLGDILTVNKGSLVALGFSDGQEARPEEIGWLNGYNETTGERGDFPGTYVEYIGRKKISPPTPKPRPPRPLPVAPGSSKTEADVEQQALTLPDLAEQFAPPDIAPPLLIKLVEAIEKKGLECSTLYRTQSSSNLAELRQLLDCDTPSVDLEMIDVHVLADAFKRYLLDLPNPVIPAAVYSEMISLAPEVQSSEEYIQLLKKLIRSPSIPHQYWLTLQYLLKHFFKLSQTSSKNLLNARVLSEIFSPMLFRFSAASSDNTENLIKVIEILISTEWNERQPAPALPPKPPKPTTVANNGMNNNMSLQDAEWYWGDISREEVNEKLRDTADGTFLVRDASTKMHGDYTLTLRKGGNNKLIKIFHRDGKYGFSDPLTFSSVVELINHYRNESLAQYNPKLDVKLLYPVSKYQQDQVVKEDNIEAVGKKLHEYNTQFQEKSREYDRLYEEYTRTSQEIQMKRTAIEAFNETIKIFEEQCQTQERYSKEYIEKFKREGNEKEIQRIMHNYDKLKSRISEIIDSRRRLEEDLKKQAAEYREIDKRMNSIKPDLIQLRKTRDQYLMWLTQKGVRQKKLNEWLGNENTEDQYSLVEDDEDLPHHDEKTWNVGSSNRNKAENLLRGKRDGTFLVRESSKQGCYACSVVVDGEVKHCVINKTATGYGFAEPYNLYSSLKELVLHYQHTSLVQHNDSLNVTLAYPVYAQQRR

For `Cc1cc2ncnn2cc1Nc1cc2c(cn1)n(C)c(=O)n2C1CCOCC1` [Compound 125, 3-Methyl-6-((7-methyl-[1,2,4]triazolo[1,5-a]pyridin-6-yl)amino)-1-(tetrahydro-2H-pyran-4-yl)-1,3-dihydro-2H-imidazo[4,5-c]pyridin-2-one], the IC50 at human DNA-PK (setting [3]) is 0.0143 µM; at human DNA-PK (setting [4]), 0.0143 µM; on human PI3Kα (p110α/p85α) it was 10.7 µM; on ATR/ATRIP, over 1 µM; in the experiment on UT-SCC-54C cells [1], over 10 µM; in the experiment with HAP1 cells, over 10 µM. For the same molecule, the values for the IC50 with HAP1/PRKDC−/− cells, against human mTOR (setting [5]) and on human mTOR (setting [6]) were over 10 µM, 43900 nM and 43900 nM, respectively. On ATM, the remaining activity at 1 µM stood at 74%. Also, the “S50” value with UT-SCC-54C cells [1] (oxic) stood at 0.67 µM. The “effect in unirradiated HAP1 cells” value in the experiment with HAP1 cells is reported as “little effect”. In addition, in the experiment with HAP1 cells, the “radiosensitisation / differential growth inhibition of HAP1 cells” value was “concentration-dependent radiosensitisation”. Also, in the experiment on HAP1/PRKDC−/− cells, the “radiosensitisation / differential growth inhibition of DNA-PK null HAP1 line” value is “did not radiosensitise”. Besides, the “D1 (radiation dose for 1% surviving fraction)” value with UT-SCC-54C cells [2] (20% O2, compound conc 1 μM) amounted to 4.90 Gy. For the same molecule, in the experiment with UT-SCC-54C cells [2] (20% O2, compound conc 1 μM), the “D10 (radiation dose for 10% surviving fraction)” value stood at 2.49 Gy. Besides, the “SER1 (sensitiser enhancement ratio at 1% surviving fraction)” value with UT-SCC-54C cells [2] (20% O2, compound conc 1 μM) was 1.77. The “SER10 (sensitiser enhancement ratio at 10% surviving fraction)” value in the experiment with UT-SCC-54C cells [2] (20% O2, compound conc 1 μM) came to 2.17. In addition, the “Plating efficiency drug/no drug” value in the experiment on UT-SCC-54C cells [2] (20% O2, compound conc 1 μM) is on record as 1.02.

Take `Cc1nc2cc(C)c(Nc3cc4c(cn3)n(C)c(=O)n4C3CCOCC3)cc2s1` [Compound 127, 6-((2,5-Dimethylbenzo[d]thiazol-6-yl)amino)-3-methyl-1-(tetrahydro-2H-pyran-4-yl)-1,3-dihydro-2H-imidazo[4,5-c]pyridin-2-one]: the IC50 is 0.00711 µM at human DNA-PK (setting [3]); 0.00711 µM on human DNA-PK (setting [4]); 3.96 µM at human PI3Kα (p110α/p85α); 2.56 µM on ATM; over 10 µM in the experiment on UT-SCC-54C cells [1]; over 10 µM with HAP1 cells. Besides, the IC50 in the experiment with HAP1/PRKDC−/− cells was over 10 µM; against human mTOR (setting [5]), 5420 nM; at human mTOR (setting [6]), 5420 nM. The “S50” value with UT-SCC-54C cells [1] (oxic) stood at 0.22 µM. For the same molecule, the “effect in unirradiated HAP1 cells” value in the experiment on HAP1 cells is reported as “little effect”. For the same molecule, the “radiosensitisation / differential growth inhibition of HAP1 cells” value with HAP1 cells is “concentration-dependent radiosensitisation”. The “radiosensitisation / differential growth inhibition of DNA-PK null HAP1 line” value in the experiment on HAP1/PRKDC−/− cells is “did not radiosensitise”.

With `CCOC(=O)c1cnc2cc(C)c(Nc3cc4c(cn3)n(C)c(=O)n4C3CCOCC3)cn12` [Compound 129, Ethyl 7-Methyl-6-((3-methyl-2-oxo-1-(tetrahydro-2H-pyran-4-yl)-2,3-dihydro-1H-imidazo[4,5-c]pyridin-6-yl)amino)imidazo[1,2-a]pyridine-3-carboxylate], the IC50 is 0.00257 µM at human DNA-PK (setting [3]); 0.00257 µM at human DNA-PK (setting [4]); 0.314 µM at human PI3Kα (p110α/p85α); over 10 µM in the experiment on UT-SCC-54C cells [1]; over 10 µM with HAP1 cells; over 10 µM with HAP1/PRKDC−/− cells. Also, the IC50 at human mTOR (setting [5]) amounted to 18900 nM; on human mTOR (setting [6]), 19000 nM. In addition, the remaining activity at 1 µM at ATM was determined as 79%. Moreover, in the experiment on UT-SCC-54C cells [1] (oxic), the “S50” value turned out to be 0.09 µM. Besides, the “effect in unirradiated HAP1 cells” value in the experiment on HAP1 cells is reported as “little effect”. For the same molecule, the “radiosensitisation / differential growth inhibition of HAP1 cells” value in the experiment with HAP1 cells is given as “concentration-dependent radiosensitisation”. For the same molecule, the “radiosensitisation / differential growth inhibition of DNA-PK null HAP1 line” value in the experiment on HAP1/PRKDC−/− cells was “did not radiosensitise”.

On to `Cn1c(=O)n(-c2ccc(C(C)(C)C#N)cc2)c2cc(Nc3ccc4ncccc4c3)ncc21` [Compound 213, 2-Methyl-2-(4-(3-methyl-2-oxo-6-(quinolin-6-ylamino)-2,3-dihydro-1H-imidazo[4,5-c]pyridin-1-yl)phenyl)propanenitrile], for which the IC50 at human DNA-PK (setting [3]) was 0.00123 µM; on human DNA-PK (setting [4]) it was 0.00123 µM; at human PI3Kα (p110α/p85α), 1.73 µM; in the experiment on UT-SCC-54C cells [1] it was over 10 µM. Moreover, the remaining activity at 1 µM on ATM was found to be 68%. Also, in the experiment on UT-SCC-54C cells [1] (oxic), the “S50” value turned out to be 2.22 µM.

On to `COc1ccc(Nc2cc3c(cn2)n(C)c(=O)n3C2CCOCC2)cc1` [Compound 215, 6-((4-Methoxyphenyl)amino)-3-methyl-1-(tetrahydro-2H-pyran-4-yl)-1,3-dihydro-2H-imidazo[4,5-c]pyridin-2-one], for which the IC50 is 0.051 µM on human DNA-PK (setting [3]); 0.051 µM at human DNA-PK (setting [4]); 12.5 µM at human PI3Kα (p110α/p85α); over 10 µM with UT-SCC-54C cells [1]; 12300 nM on human mTOR (setting [5]); 12300 nM at human mTOR (setting [6]). Also, at ATM, the remaining activity at 1 µM was determined as 90%. Also, the “S50” value in the experiment on UT-SCC-54C cells [1] (oxic) was 7.5 µM.

On to `Cc1cc(OCc2cnc([N+](=O)[O-])n2C)ccc1Nc1cc2c(cn1)n(C)c(=O)n2C1CCOCC1` [Compound 236, 3-Methyl-6-((2-methyl-4-((1-methyl-2-nitro-1H-imidazol-5-yl)methoxy)phenyl)amino)-1-(tetrahydro-2H-pyran-4-yl)-1,3-dihydro-2H-imidazo[4,5-c]pyridin-2-one], for which the IC50 is 0.78 µM and 2.2 µM at human DNA-PK (setting [3]); 0.78 µM at human DNA-PK (setting [4]); 16.2 µM and 52.3 µM on human PI3Kα (p110α/p85α); 57.3 µM on ATM; over 100 µM on ATR/ATRIP; over 10 µM in the experiment with UT-SCC-54C cells [1]. Besides, the IC50 in the experiment on HAP1 cells is over 10 µM; in the experiment with HAP1/PRKDC−/− cells, over 10 µM; on human mTOR (setting [5]), 92900 nM; against human mTOR (setting [6]) it was 92900 nM and > 100000 nM. In addition, the “S50” value with UT-SCC-54C cells [1] (oxic) was over 10 µM. Also, the “radiosensitisation / differential growth inhibition of UT-SCC-54C cells” value in the experiment on UT-SCC-54C cells [1] (oxic, 0 or 3 Gy, regrowth assay) was “did not display any differential growth inhibition”. Moreover, the “radiosensitisation / differential growth inhibition of HAP1 cells” value in the experiment with HAP1 cells is on record as “did not demonstrate any differential growth inhibition”. Further, the “radiosensitisation / differential growth inhibition of DNA-PK null HAP1 line” value with HAP1/PRKDC−/− cells is “did not demonstrate any differential growth inhibition”. The “D1 (radiation dose for 1% surviving fraction)” value in the experiment with UT-SCC-54C cells [2] (0% O2, compound conc 1 μM) was determined as 17.4 Gy; in the experiment with UT-SCC-54C cells [2] (20% O2, compound conc 1 μM) it was 9.41 Gy. Besides, the “D10 (radiation dose for 10% surviving fraction)” value came to 9.96 Gy with UT-SCC-54C cells [2] (0% O2, compound conc 1 μM) and 6.06 Gy in the experiment with UT-SCC-54C cells [2] (20% O2, compound conc 1 μM). For the same molecule, the “SER1 (sensitiser enhancement ratio at 1% surviving fraction)” value in the experiment on UT-SCC-54C cells [2] (0% O2, compound conc 1 μM) came out at 1.37; in the experiment with UT-SCC-54C cells [2] (20% O2, compound conc 1 μM), 1.00. The “SER10 (sensitiser enhancement ratio at 10% surviving fraction)” value turned out to be 1.58 with UT-SCC-54C cells [2] (0% O2, compound conc 1 μM) and 0.94 with UT-SCC-54C cells [2] (20% O2, compound conc 1 μM). Besides, the “Plating efficiency drug/no drug” value in the experiment with UT-SCC-54C cells [2] (0% O2, compound conc 1 μM) stood at 1.09; in the experiment on UT-SCC-54C cells [2] (20% O2, compound conc 1 μM), 1.05. In addition, the “SER (sensitiser enhancement ratio)” value in the experiment on UT-SCC-54C cells [2] (UT-SCC-54C, anoxic conditions, clonogenic survival, FIG. 10) amounted to 1.51. Moreover, the “sensitisation of UT-SCC-54C cells selectively under anoxia” value with UT-SCC-54C cells [2] (oxic vs anoxic, clonogenic survival, FIGS. 9 and 10) is “provide sensitisation of UT-SCC-54C cells selectively under anoxia”.

As for `COc1ccc([C@@H](O)c2cc(-c3ncnc4cc(N5CCOCC5)ccc34)c(F)cc2Cl)nn1` [Compound M3814, reference compound], on Ser2056 of DNA-PKcs, the “inhibition of Ser2056 on DNA-PKcs” value is on record as “demonstrated inhibition”.

Values taken from patent US20230365559A1, “NOVEL AMINOPYRIDINES AND THEIR USE IN TREATING CANCER” (priority 2020, published 2023).
